Source: ChEMBL document CHEMBL4811310, “Antimalarial activity of 2,6-dibenzylidenecyclohexanone derivatives” (Bioorg Med Chem Lett, 2021)
≈ marks a conversion by molar mass, not a printed value.

Legend:
[1] = test system: BJ; experiment: Cytotoxicity against human BJ cells assessed as reduction in cell viability; format: cell-based
[2] = Therapeutic index, ratio of EC50 for cytotoxicity against human BJ cells to EC50 for antimalarial activity against CQ-sensitive Plasmodium falciparum 3D7 MRA-102 infected in human O-positive erythrocytes; format: toxicity, cell-based; settings: read-out: Ratio EC50
[3] = test system: Plasmodium falciparum; experiment: Antimalarial activity against CQ-sensitive Plasmodium falciparum 3D7 MRA-102 infected in human O-positive erythrocytes assessed as inhibition of parasite growth; format: functional, organism-based; settings: 3D7 MRA-102, Erythrocyte
[4] = Solubility in PBS buffer at pH 7.4; format: physicochemical
[5] = test system: Plasmodium falciparum; experiment: Antimalarial activity against Plasmodium falciparum K1 infected in human erythrocytes assessed as inhibition of parasite growth; format: functional, organism-based; settings: K1, Erythrocyte
[6] = test system: Plasmodium falciparum; experiment: Antimalarial activity against Plasmodium falciparum V1S infected in human erythrocytes assessed as inhibition of parasite growth; format: functional, organism-based; settings: Erythrocyte
[7] = test system: Plasmodium falciparum; experiment: Antimalarial activity against CQ-sensitive Plasmodium falciparum 3D7 MRA-102 infected in human O-positive erythrocytes assessed as inhibition of parasite growth at 16 uM; format: functional; settings: 3D7 MRA-102, Erythrocyte
[8] = Cytotoxicity against human BJ cells assessed as reduction in cell viability at 58 uM; format: cell-based; settings: read-out: INH

| SMILES | EC50 [1] | selectivity ratio [2] | EC50 [3] | solubility [4] | EC50 [5] | EC50 [6] | inhibition at 16 µM [7] | cytotoxicity at 58 µM [8] |
| --- | --- | --- | --- | --- | --- | --- | --- | --- |
| O=C1/C(=C/c2cccc(C(F)(F)F)c2)CSC/C1=C\c1cccc(C(F)(F)F)c1 | 23.2 µM | 28 | 0.82 µM | 1.2 µM (≈ 0.514 µg/mL) |  |  |  |  |
| O=C1/C(=C/c2cccc(C(F)(F)F)c2)CC(c2ccccc2)C/C1=C\c1cccc(C(F)(F)F)c1 (configuration not stated) | 1.53 µM | 3 | 0.491 µM | 1.1 µM (≈ 0.535 µg/mL) |  |  |  |  |
| N#CC1(c2ccccc2)C/C(=C\c2cccc(F)c2)C(=O)/C(=C/c2cccc(F)c2)C1 (configuration not stated) | 2.27 µM | 2 | 1.13 µM | < 1 µM |  |  |  |  |
| CC(C)(C)C1C/C(=C\c2cccc(C(F)(F)F)c2)C(=O)/C(=C/c2cccc(C(F)(F)F)c2)C1 (configuration not stated) | > 24 µM | > 37 | 0.641 µM | < 1 µM |  |  |  |  |
| N#CC1(c2ccccc2)C/C(=C\c2ccccc2)C(=O)/C(=C/c2ccccc2)C1 (configuration not stated) | 5.85 µM | 4 | 1.36 µM | < 1 µM |  |  |  |  |
| N#CC1(c2ccccc2)C/C(=C\c2cccc(C(F)(F)F)c2)C(=O)/C(=C/c2cccc(C(F)(F)F)c2)C1 (configuration not stated) | 0.57 µM | 2 | 0.331 µM |  | 0.53 µM | 0.25 µM |  |  |
| CC1C/C(=C\c2cccc(C(F)(F)F)c2)C(=O)/C(=C/c2cccc(C(F)(F)F)c2)C1 (configuration not stated) | 20.1 µM | 18 | 1.1 µM | < 1 µM |  |  |  |  |
| O=C1/C(=C/c2cccc(C(F)(F)F)c2)CS(=O)(=O)C/C1=C\c1cccc(C(F)(F)F)c1 | 0.12 µM | < 1 | 0.393 µM | < 1 µM |  |  |  |  |
| O=C1/C(=C/c2cccc(C(F)(F)F)c2)COC/C1=C\c1cccc(C(F)(F)F)c1 | 23.7 µM | 20 | 1.16 µM | 1.4 µM (≈ 0.577 µg/mL) |  |  |  |  |
| N#CC1(c2ccccc2)C/C(=C\c2ccc(C(F)(F)F)cc2)C(=O)/C(=C/c2ccc(C(F)(F)F)cc2)C1 (configuration not stated) | 0.406 µM | 2 | 0.207 µM | < 1 µM |  |  |  |  |
| N#CC1(c2ccccc2)CC(Cc2cccc(C(F)(F)F)c2)C(=O)C(Cc2cccc(C(F)(F)F)c2)C1 (configuration not stated) | > 24 µM | > 23 | 1.03 µM | 2.3 µM (≈ 1.19 µg/mL) |  |  |  |  |
| O=C1/C(=C/c2cccc(C(F)(F)F)c2)CCC/C1=C\c1cccc(C(F)(F)F)c1 | 23.5 µM | 10 | 2.29 µM | < 1 µM |  |  |  |  |
| N#CC1(c2ccccc2)C/C(=C\c2cccc(C(F)(F)F)c2)C(O)/C(=C/c2cccc(C(F)(F)F)c2)C1 (configuration not stated) | > 24 µM | > 7 | 3.21 µM | 2.5 µM (≈ 1.28 µg/mL) |  |  |  |  |
| O[C@@H](c1cc(C(F)(F)F)nc2c(C(F)(F)F)cccc12)[C@H]1CCCCN1 [(S,R)-MEFLOQUINE] |  |  |  |  |  |  | 100% |  |
| CCCSc1ccc2nc(NC(=O)OC)[nH]c2c1 [ALBENDAZOLE] |  |  |  | < 1 µM |  |  |  |  |
| NC(=O)N1c2ccccc2C=Cc2ccccc21 [CARBAMAZEPINE] |  |  |  | > 100 µM |  |  |  |  |
| CC(=O)[C@]1(O)Cc2c(O)c3c(c(O)c2[C@@H](O[C@H]2C[C@H](N)[C@H](O)[C@H](C)O2)C1)C(=O)c1ccccc1C3=O [IDARUBICIN] |  |  |  |  |  |  |  | 100% |
